Measured values: patent US12239643B2, “Therapeutic agent for inflammatory diseases, autoimmune diseases, fibrotic diseases, and cancer diseases” (MEIJI SEIKA PHARMA CO., LTD., priority 2018, dated 2025)
Read-outs that look alike come from different tables or passages of the source.

How the values were obtained:
PDE4 = assay: Evaluation of PDE4 inhibitory activity, scintillation proximity assay; assay type: biochemical; conditions: for PDE4 inhibitory activity: summary in words of Tables 57 to 69
How it was run: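 SPA with [2,8-3H]-cAMP and diluted PDE4 enzyme preparation in 50 mM Tris-HCl pH 7.4, 8.3 mM MgCl2, 1.7 mM EGTA, 3 mg/mL BSA, 120 min at room temperature. Product captured on ZnSO4-containing YSi-SPA beads, scintillation counted; IC50 from inhibition curves vs DMSO control and no-enzyme blank.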

TGF-β = TGF-β inhibitory activity using THP1 cells differentiated into macrophages; assay type: cell-based; conditions: Homo sapiens, THP-1; THP1 cells differentiated into macrophages, lipopolysaccharide 1 μg/mL, about 7 hours; read-out: TFG-β Inhibitory Activity (Test Example 6)
Method: The TGF-β inhibitory activity was measured using THP1 cells as follows. First, THP1 cells were seeded on a 24-well culture plate at […], and culture was carried out overnight at 37° C. and 5% CO2 in RPMI-1640 medium (containing 10% fetal bovine serum, penicillin, and streptomycin) supplemented with 100 nM phorbol myristate acetate. After that, the cells were differentiated into macrophages by changing to RPMI-1640 medium without phorbol myristate acetate, followed by further culture at 37° C. under 5% CO2 overnight. Next, the THP1 culture plate was washed once with PBS(−) 1 mL/well, and then the test compound and lipopolysaccharide (final concentration 1 μg/mL) were added, followed by culture at 37° C. under 5% CO2 for about 7 hours. After culturing, the entire amount of the medium was collected, and the amount of TGF-β in the centrifuged supernatant was quantified by the sandwich ELISA method. The non-addition of lipopolysaccharide was used as a blank, and the control was obtained by adding only dimethyl sulfoxide instead of the test compound, and the inhibition rate of the test compound against the control was calculated by the following formula. Inhibition Rate (%)={1−(Value at Addition of Each Test Compound−Blank Value)/(Control Value−Blank Value)}×100
In addition, the TGF-β inhibitory activity (concentration for the inhibition rate of 50%) of the test compound was calculated from the inhibition curves based on the inhibition rate for various concentrations of the test compound.
The measurement results obtained by measuring the TFG-β inhibitory activity (50% inhibitory concentration) of the test compounds by the above method were evaluated in accordance with the following evaluated basis; A: less than 1 μM, and B: 1 μM or more.

[1] = system: oxazolone-induced auricle edema, BALB/c mice; assay: Hapten repeated application mouse chronic dermatitis model (oral, topical); assay type: in vivo; conditions: oral, 0.3 to 10 mg/kg twice a day for 10 days
Method: Evaluation was carried out using female BALB/c mice (7 to 8 weeks of age). First, the hair of the abdomen of the mice was treated with a hair clipper, and then 150 μL of a 3% oxazolone acetone/ethanol solution was applied to the abdomen as a hapten. One week later, 20 μL/ear of 1% oxazolone acetone/ethanol solution was applied to the outer surface of the auricle of both ears of the mice 3 times/week to induce inflammation. A 1% oxazolone-acetone/ethanol solution was applied every other day for 10 days from 1 week after the start of inflammation induction. In addition, for 10 days from 1 week after the start of inflammation induction, the test compound suspended in 0.5% w/v methylcellulose (0.5% MC) was orally administered at 0.3 to 10 mg/kg twice a day (10 μL/g), or 20 μL of a 0.3 to 3% test compound dissolved in an acetone/ethanol solution was applied once or twice a day (topical administration). A 1% oxazolone was not applied to the blank. The control was one in which 1% oxazolone was applied and only 0.5% MC was orally administered without using the test compound, or only an acetone/ethanol solution was applied.
After administration for 10 days, auricle thickness was measured using a dial thickness gauge, and the changes in auricular thickness before the treatment (immediately before the start of administration of the test compound) and after the treatment (after the administration of the test compound for 10 days) were used to calculate the edema suppression rate by the following formula. Edema Suppression Rate (%)={1−(Auricle Thickness After Treatment by Test Compound−Auricle Thickness Before Treatment by Test Compound)/(Auricle Thickness After Treatment of Control−Auricle Thickness Before Treatment of Control)}×100
The measurement results obtained by measuring the edema suppression rate at the time of oral administration of each test compound by the above method were evaluated in accordance with the following evaluated basis; A: 70% or more, B: 40% or more and less than 70%, and C: less than 40%. In addition, the measurement results obtained by measuring the edema suppression rate at the time of topical administration of each test compound were evaluated in accordance with the following evaluated basis; A: 100% or more, B: 70% or more and less than 100%, and C: less than 70%.

[2] = Hepatic metabolic stability (rat liver microsome method); assay type: in vitro ADME; conditions: rat liver microsomes 0.5 mg/mL, test substance 1 μM, NADPH 1 mM, 37° C., 30 minutes
How it was run: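 Rat liver microsomes (0.5 mg/mL final) with test compound (1 μM final) in 100 mM potassium phosphate pH 7.4, 37° C; reaction started with NADPH (1 mM final) after 5 min preincubation. Acetonitrile stop at 0 and 30 min, LC-MS quantitation; % remaining = 30 min/0 min ×100, graded A ≥75%, B 60–<75%, C 45–<60%, D <45%.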

[3] = finer grading of compounds rated A in Evaluation 1, read-out: PDE4 Inhibitory Activity (Evaluation 2)
[4] = scintillation proximity assay, read-out: PDE4 Inhibitory Activity (Evaluation 1; concentration for the inhibition rate of 50%)
[5] = scintillation proximity assay, class symbols of Evaluation 1, read-out: PDE4 Inhibitory Activity (concentration for the inhibition rate of 50%, IC50), Evaluation 1

Row | Compound | IC50 (PDE4; [3]) | IC50 (PDE4; [4]) | PDE4 inhibitory activity (PDE4) | IC50 (TGF-β) | Mouse Chronic Dermatitis Model (Test Example 8), Oral: edema suppression rate [1] | IC50 (PDE4; [5]) | Residual ratio (% remaining for 30-minute reaction) [2]
1 | COC(C)(C)c1cc(-c2nccs2)c2oc(N3CC4CC(C3)N4)nc2c1OC(F)(F)F [Example 199, 2-(3,6-Diazabicyclo[3.1.1]heptan-3-yl)-5-(2-methoxypropan-2-yl)-7-(thiazol-2-yl)-4-(trifluoromethoxy)benzo[d]oxazole] | 1 to 11 nM | < 100 nM | particularly excellent | < 1000 nM | B (B: 40% or more and less than 70%) | – | –
2 | CC(O)(c1ccc(-c2nccs2)c2oc(N3CC4CC(C3)N4)nc12)C(F)F (stereo not drawn) [Example 296, 2-(2-(3,6-Diazabicyclo[3.1.1]heptan-3-yl)-7-(thiazol-2-yl)benzo[d]oxazol-4-yl)-1,1-difluoropropan-2-ol] | 1 to 11 nM | < 100 nM | particularly excellent | – | A (A: 70% or more) | – | –
3 | CC(O)(c1ccc(-c2nccs2)c2oc(N3CC4CC(C3)N4)nc12)C(F)(F)F (stereo not drawn) [Example 234, 2-(2-(3,6-Diazabicyclo[3.1.1]heptan-3-yl)-7-(thiazol-2-yl)benzo[d]oxazol-4-yl)-1,1,1-trifluoropropan-2-ol] | ≤ 1 nM | < 100 nM | particularly excellent | – | A (A: 70% or more) | – | –
4 | Cc1ccc(-c2nccs2)c2oc(N3CC4CCC(C3)N4)nc12 [Example 25, 2-(3,8-Diazabicyclo[3.2.1]octan-3-yl)-4-methyl-7-(thiazol-2-yl)benzo[d]oxazole] | ≤ 1 nM | – | particularly excellent | < 1000 nM | – | < 100 nM | –
5 | CC(C)(O)c1cc(-c2nccs2)c2oc(N3CC4CCC(C3)N4)nc2c1C(F)(F)F [Example 177, 2-(2-(3,8-Diazabicyclo[3.2.1]octan-3-yl)-7-(thiazol-2-yl)-4-(trifluoromethyl)benzo[d]oxazol-5-yl)propan-2-ol] | 1 to 11 nM | – | particularly excellent | < 1000 nM | – | < 100 nM | –
6 | COc1ccc(-c2nccs2)c2oc(N3CC4CCC(C3)N4)nc12 [Example 75, 2-(3,8-Diazabicyclo[3.2.1]octan-3-yl)-4-methoxy-7-(thiazol-2-yl)benzo[d]oxazole] | 1 to 11 nM | – | particularly excellent | < 1000 nM | – | < 100 nM | –
7 | CC(=O)c1cc(-c2nccs2)c2oc(N3CC4CC(C3)N4)nc2c1OC(F)(F)F [Example 212, 1-(2-(3,6-Diazabicyclo[3.1.1]heptan-3-yl)-7-(thiazol-2-yl)-4-(trifluoromethoxy)benzo[d]oxazol-5-yl)ethan-1-one] | ≤ 1 nM | < 100 nM | particularly excellent | – | B (B: 40% or more and less than 70%) | – | –
8 | FC(F)(F)Oc1ccc(-c2nccs2)c2oc(N3CC4CCCC(C3)N4)nc12 [Example 30, 2-(3,9-Diazabicyclo[3.3.1]nonan-3-yl)-7-(thiazol-2-yl)-4-(trifluoromethoxy)benzo[d]oxazole] | ≤ 1 nM | – | particularly excellent | < 1000 nM | – | < 100 nM | –
9 | FC(F)(F)Oc1c(Cl)cc(-c2nccs2)c2oc(N3CC4CC(C3)N4)nc12 [Example 3, 2-(3,6-Diazabicyclo[3.1.1]heptan-3-yl)-5-chloro-7-(thiazol-2-yl)-4-(trifluoromethoxy)benzo[d]oxazole] | ≤ 1 nM | – | particularly excellent | < 1000 nM | – | < 100 nM | B (B: 60% or more and less than 75%)
10 | CC(O)c1cc(-c2nccs2)c2oc(N3CC4CC(C3)N4)nc2c1OC(F)(F)F (stereo not drawn) [Example 203, 1-(2-(3,6-Diazabicyclo[3.1.1]heptan-3-yl)-7-(thiazol-2-yl)-4-(trifluoromethoxy)benzo[d]oxazol-5-yl)ethan-1-ol] | 1 to 11 nM | < 100 nM | particularly excellent | < 1000 nM | B (B: 40% or more and less than 70%) | – | –
11 | OC(c1ccc(-c2nccs2)c2oc(N3CC4CC(C3)N4)nc12)C(F)(F)F (stereo not drawn) [Example 120, 1-(2-(3,6-Diazabicyclo[3.1.1]heptan-3-yl)-7-(thiazol-2-yl)benzo[d]oxazol-4-yl)-2,2,2-trifluoroethan-1-ol] | 1 to 11 nM | – | particularly excellent | < 1000 nM | B (B: 40% or more and less than 70%) | < 100 nM | –
12 | FC(F)(F)Oc1c(Cl)cc(-c2nccs2)c2oc(N3CC4COCC(C3)N4)nc12 [Example 4, 7-(5-Chloro-7-(thiazol-2-yl)-4-(trifluoromethoxy)benzo[d]oxazol-2-yl)-3-oxa-7,9-diazabicyclo[3.3.1]nonane] | 1 to 11 nM | – | particularly excellent | < 1000 nM | – | < 100 nM | –
13 | FC(F)(F)c1ccc(-c2nccs2)c2oc(N3CC4CC(C3)N4)nc12 [Example 32, 2-(3,6-Diazabicyclo[3.1.1]heptan-3-yl)-7-(thiazol-2-yl)-4-(trifluoromethyl)benzo[d]oxazole] | 1 to 11 nM | – | particularly excellent | < 1000 nM | – | < 100 nM | –
14 | COC(c1cc(-c2nccs2)c2oc(N3CC4CC(C3)N4)nc2c1OC(F)(F)F)C(F)F (stereo not drawn) [Example 208, 2-(3,6-Diazabicyclo[3.1.1]heptan-3-yl)-5-(2,2-difluoro-1-methoxyethyl)-7-(thiazol-2-yl)-4-(trifluoromethoxy)benzo[d]oxazole] | 1 to 11 nM | < 100 nM | particularly excellent | – | B (B: 40% or more and less than 70%) | – | –
15 | COC(C)(c1ccc(-c2nccs2)c2oc(N3CC4CC(C3)N4)nc12)C(F)(F)F (stereo not drawn) [Example 235, 2-(3,6-Diazabicyclo[3.1.1]heptan-3-yl)-7-(thiazol-2-yl)-4-(1,1,1-trifluoro-2-methoxypropan-2-yl)benzo[d]oxazole] | ≤ 1 nM | < 100 nM | particularly excellent | – | A (A: 70% or more) | – | –
16 | CC(C)(O)C(F)(F)Oc1ccc(-n2cccn2)c2oc(N3CC4CCC(C3)N4)nc12 [Example 316, 1-((2-(3,8-Diazabicyclo[3.2.1]octan-3-yl)-7-(1H-pyrazol-1-yl)benzo[d]oxazol-4-yl)oxy)-1,1-difluoro-2-methylpropan-2-ol] | – | < 100 nM | – | – | – | – | A (A: a % remaining rate of 75% or more)
